# Assay: Stability of mixed skin care composition (base + booster compositions)
# Type: physicochemical
# Conditions: combination results in incompatible pH and separation of phases
# Experimental: Referring again to FIG. 2, after the ingredient is determined, a compatibility profile is determined corresponding to the previously selected ingredients (step 207). The compatibility profile includes an inclusion or exclusion of additional ingredients to the formulation. That is, the compatibility profile provides acceptable combinations of booster composition and base composition combinations made with the previously selected ingredients that forms stable and efficacious skin care compositions. […] “Stable”, “Stability” and grammatical variations thereof, indicate a macroscopic homogeneous substance that doesn't have variation in texture or varying phases physically noticeable. In addition, microscopically the emulsion of the composition has the appearance of being homogeneous with the droplets and no dynamic changes in the microscope image. […] In addition, compatibility may include ingredients that retain efficacy of individual ingredients when combined with the other ingredients remain present in the formula over time periods and exposures to varying temperature.
# Examples and comparative examples below are provided by the cosmetic dispending system as shown and described above. TABLE 3 includes the composition of Base B, the hydroalcoholic base, according to an embodiment of the disclosure.
structure (smiles),measurement,value
CC1=C(/C=C/C(C)=C/C=C/C(C)=C/CO)C(C)(C)CCC1 [retinol],compatibility with hydroalcoholic base,not compatible
